The values that follow come from a melting point compilation (Tetko et al.; mined from patent text by program, amines drawn as free bases though some values may be those of a salt).

Some results are limits rather than exact numbers.

With `CCCc1ccccc1OS(=O)(=O)c1ccc(N2CCN(C)C2=O)cc1`, the melting point lay within 103 to 105 °C. The figure for `CS(=O)Cc1nnc(-c2ccc3occ(-c4cccc(OC(F)(F)F)c4)c3c2)o1` (stereo unspecified) is 138 to 139 °C; for `CNC(=O)c1ccc(F)c2c1CC(N(CCCc1c[nH]c3ccc(F)cc13)C1CCC1)CO2` (stereo unspecified) it is 132 °C. The same measure for `COC(=O)C1=CON2CCC34C=CC(O)CC3Oc3c(OC)ccc(c34)C12` (stereo unspecified): 151 to 154 °C; for `CC12CCC3c4ccc(OC(=O)c5cccnc5)cc4CCC3C1CCC2OC(=O)c1cccnc1` (stereo unspecified): 148 to 150 °C. The same measure for `O=C(C=Cc1c(Cl)cccc1Cl)c1ccccc1`: 83 °C; for `COc1ccc2nccc(CCNC(C)=O)c2c1`: 113 to 115 °C; for `CCCc1nc(SC(F)F)c(C(=O)O)n1Cc1ccc(-c2ccccc2S(=O)(=O)NC(=O)NCCCc2ccccc2)cc1`: 108 °C.

Compound `CCn1ccc2c(c1=O)CN=C(N1CCNCC1)N2` registered a melting point of 117 to 120 °C. Regarding `COc1ccc2c(c1)C(CCCNC(C)=O)CCC2` (stereo unspecified), the melting point is 71 to 73 °C. Compound `Cc1nc(Cl)c2c(C)c(C)n(-c3c(C)cc(C)c4nsnc34)c2n1` registered a melting point of 169 to 171 °C.

The compound `O=C1Nc2cccc(NC(=O)c3cccn(-c4ccc(F)cc4)c3=O)c2/C1=C/c1ccc[nH]1` showed a melting point of more than 300 °C. The same measure for `CCSc1c(C)nn(-c2c(Cl)cc(C(F)(F)F)cc2Cl)c1N`: 117 °C. The figure for `COc1ccc2nc(CN(CCN(Cc3ccc4cc(OC)ccc4n3)Cc3ccc4cc(OC)ccc4n3)Cc3ccc4cc(OC)ccc4n3)ccc2c1` is 168 to 170 °C; for `CCCn1cc(C(=O)OCC)c(=O)c2cc(F)c(-n3cccc3)cc21` it is 128 to 130 °C; for `C#Cc1cc(Cl)cc2nc(Cc3cc(C(C)(C)C)c(O)c(C(C)(C)C)c3)oc12` it is 152 to 155 °C.

Regarding `CCC(=O)NCCC1CCc2cc(F)c(OC)cc21` (stereo unspecified), the melting point lay within 76 to 78 °C. Take `CCC(CC)N(Cc1ccc(C#N)cc1F)S(=O)(=O)c1ccc(F)cc1`: the melting point lay within 102 to 104 °C. The same measure for `OCC1COC2(CC(c3ccccc3)SC(c3ccccc3)C2)O1` (stereo unspecified): 116 to 118 °C; for `CCCCC(Oc1ccc(C#N)cc1C=O)C(=O)OC` (stereo unspecified): 77 to 79 °C; for `CC(C)=CCCC(C)=CCOc1ccc(C(=O)NCCSc2ccc(C(F)(F)F)cn2)cc1`: 96.7 to 97.5 °C. The figure for `C=CC(=O)Oc1ccc(-c2cccc(OC(=O)C=C)c2)cc1` is 63.6 °C; for `COc1cc2[nH]c(S)nc2cc1C` it is more than 310 °C. In the case of `CCN(C(=O)OCc1ccccc1)c1cc(Cl)c2c(c1)C(c1ccccc1F)=NC(C)(C)C(=O)N2C`, the melting point lay in the range of 150 to 151 °C. On to `FC(F)(F)c1cccc2c(-c3ccccc3)c(Sc3ccccc3)cnc12`, for which the melting point lay within 153 to 155 °C. `CC1(Nc2ccccc2)OC(=O)C=C1c1ccccc1` (stereo unspecified) registered a melting point of 158 to 160 °C.

Compound `CC(C)(C)[Si](O[C@@H]1CC(=O)C[C@H](O[Si](c2ccccc2)(c2ccccc2)C(C)(C)C)C1)(c1ccccc1)c1ccccc1` displayed a melting point of 108 to 109 °C. For `CCCCCC(CC(=O)NO)C(=O)NC(C(=O)N1CCCC1CO)C(C)C` (stereo unspecified), the melting point was in the range of 148 to 149 °C.

`Cc1cccc(-c2cn(C)cc(-c3cccc(C)c3)c2=O)c1` registered a melting point of 148 to 150 °C.

`CCCCCCCCCCCCCCN(C(=O)CCCCCCCCCCC)C1(N)OC(CO)C(O)C(O)C1C(=O)C(N)C(=O)C(C)N` (stereo unspecified): the melting point lay within 115 to 117 °C. The same measure for `COc1cccc2c(Cl)nc(C)nc12`: 101 to 102 °C; for `COc1ccc(N2CCN(c3c(C)c(C)c4c(c3C)C(O)(c3ccoc3)C(C)(C)O4)CC2)cc1` (stereo unspecified): 148 to 149 °C; for `CCOC(=O)c1c2ccc(Cl)cc2c(-c2ccccc2)n1CCCC(C)=O`: 94 to 95 °C. Take `O=C1NCN(c2ccccc2)C12CCN(CCCC1(c3ccc(F)cc3F)OCCO1)CC2`: the melting point is 58 to 62 °C. The same measure for `CN(C)c1ccc(C(=O)c2cc(C(F)(F)F)cc(C(F)(F)F)c2)cc1`: 129 to 131 °C; for `COCN(COC)c1ccn2nc(-c3ccccc3)c(-c3ccc(=O)n(C(C)C)n3)c2c1`: 148 to 150 °C.

`COC(=O)Cc1nc(-c2ccc(OC)c(OC)c2)c2cc(Cl)ccc2n1` displayed a melting point of 144 to 145 °C.

For the compound `COc1ccc(Cn2c3c(ccc2=O)C(C)NC(SC)=N3)cc1Cl` (stereo unspecified), the melting point was in the range of 184 to 186 °C. The figure for `CCN(CC)c1cc(C)nc(Oc2c(C)cc(C)cc2C)c1C` is 180 to 181 °C.

The compound `Cc1ccccc1CC(=NC#N)NC(NC(=O)CF)C(C)(C)C` (stereo unspecified) gave a melting point of 151 to 152 °C. The figure for `Cc1nc(N=CN(C)C)sc1C` is 47 to 58 °C; for `N#CC1Sc2ccccc2N1C(=O)c1ccc(F)cc1` (stereo unspecified) it is 150 to 151 °C. The same measure for `CS(=O)(=O)Nc1ccc(C=O)cc1Sc1ccc(F)cc1F`: 109 to 111 °C; for `O=C(OC1c2ccccc2C(=O)N1c1ccc2ccc(Cl)nc2n1)N1CCN(C(=O)C(F)(F)F)CC1` (stereo unspecified): 218 °C. In turn, `CCc1cn(C2CC(O)C(CNC(=O)C(C)Cc3c(Cl)cccc3Cl)O2)c(=O)[nH]c1=O` (mixture of isomers) had a melting point of 194 to 197 °C.

`CC(=C(F)F)c1cn(-c2c(Cl)cc(C(F)(F)F)cc2Cl)nc1C#N` registered a melting point of 66 to 68 °C.

On to `CCc1nc2c(cnn2CC)c(NC2CCOCC2)c1CNC(=O)c1cc(C)cc(C(=O)NCc2ccc(Cl)c(-c3cccc(C=O)c3)c2)c1`, for which the melting point fell in the range of 153 to 156 °C.

`C=C(C)C(=O)OCCCCOC(=O)/C=C/c1ccc(OC(=O)OCC)cc1`: the melting point is 54 to 56 °C. The figure for `CCOC(=O)c1nc(N)sc1-c1cn2cc(C)ccc2n1` is 268 to 271 °C.

Regarding `c1ccc2cc(OCCCCCCCCOc3ccc4ccccc4c3)ccc2c1`, the melting point lay within 125 to 126 °C. The figure for `O=S(=O)(c1ccc(-n2cccc2)cc1)c1cccc2cnccc12` is 207 to 210 °C; for `O=C(Oc1ccccc1)N1C(=O)[C@H](O)[C@@H]1c1ccccc1` it is 125 to 126 °C. The figure for `O=c1c2c[nH]c3c(c-2nn1-c1ccc(Cl)cc1)CCC3` is more than 350 °C. The same measure for `CC(C)(C)OC(=O)Nc1cc(N2CCC(OC3CCCCO3)CC2)c(-c2ccc(F)cc2)cc1NC(=O)CC(=O)c1cccc(-n2ccnc2)c1` (racemic): 129 to 132 °C; for `CC(C)(c1ccc(Oc2ccc([N+](=O)[O-])cc2C(F)(F)F)cc1)c1cccc(C(C)(C)c2ccc(Oc3ccc([N+](=O)[O-])cc3C(F)(F)F)cc2)c1`: 127 to 128 °C.

Regarding `CC(=O)OCc1ccc([N+](=O)[O-])cc1`, the melting point was in the range of 77 to 78 °C. In turn, `Cc1cc(C)c2cc(C3CCNCC3)sc2c1` came in with a melting point of 83 to 88 °C. The figure for `COC(=O)Cc1ccc2cc(OC)ncc2c1` is 49.5 to 51 °C; for `C=CCC(CC)(NC)C(=O)c1ccc(OCCO)cc1` (stereo unspecified) it is 80 to 82 °C.

`COC1=C(OC)C(=O)C2=C(CC(CO)(CCCCCCCCO)C2)C1=O` had a melting point of 59 to 61 °C. The same measure for `CCOC(=O)/C=C/c1cc(C(C)C)c(OC(C)=O)c2c(C)cccc12`: 122 to 123 °C; for `COc1ccc(C(=NOC(C)=O)c2ccccc2F)c(O)c1C`: 83 to 86 °C; for `O=C(N[C@H](Cc1ccc(Cl)c(OC(F)(F)C(F)F)c1)[C@@H](O)c1ccc(F)cc1)c1ccc(F)c2ccccc12` (racemic): 206 to 207 °C. The same measure for `Cc1cn(C2OC(CO)C(O)C2O)c(=O)[nH]c1=O` (stereo unspecified): 244 to 249 °C; for `CCOc1ccccc1-c1nc2c(C(N)=O)ccnc2c(=O)[nH]1`: 295 to 297 °C. The figure for `CC(I)CC(F)(F)C(F)(F)C(F)(F)C(F)(F)C(F)(F)C(F)(F)CC(C)I` (stereo unspecified) is 53 °C; for `CCOC(=O)c1cn(Nc2ccc(F)cc2F)c2nc(Cl)c(F)cc2c1=O` it is 210 to 212 °C; for `Fc1ccc(-n2nnc3cccnc32)c(F)c1` it is 132 °C. As to `CC(=O)Nc1ccc(-c2cn(-c3nc(-c4ccc(C(F)(F)F)cc4)cc(C(F)(F)F)n3)cn2)cn1`, the melting point turned out to be 314 °C. Regarding `COc1c(O)nc(-c2ccc(OCc3ccccc3)cc2)nc1O`, the melting point lay within 251 to 252 °C. The figure for `O=C1NC(=O)C(Cc2ccc(OCCN3c4ccccc4Oc4ccccc43)cc2)S1` (stereo unspecified) is 170 to 172 °C. Compound `CCc1ccc(-c2ccc(CCc3ccc(C(F)(F)F)cc3)cc2)cc1` gave a melting point of 128 °C. The figure for `CSc1ncc2cc(Oc3ccccc3F)c(=O)n(C)c2n1` is 234 to 236 °C; for `COc1ccc(CCC(=O)NNC(=O)c2ccc3[nH]ncc3c2)cc1C(F)(F)F` it is 224 to 225 °C. The figure for `CC(C)(O)c1ccc(CN)cc1` is 62 to 64 °C; for `CCOP(=S)(OCC)Oc1c(C(=O)c2ccccc2Cl)c(C)nn1C` it is 71 to 74 °C; for `CCOC(=O)CCC1NC(=O)CN1Cc1ccccc1` (stereo unspecified) it is 60 to 62 °C. On to `N#CN1CCc2cccc(Cl)c2CC1`, for which the melting point lay within 81 to 82 °C. The same measure for `CCS(=O)(=O)CCC(=O)NNC(=O)N1Cc2ccccc2Oc2ccc(C)cc21`: 167 to 169 °C. The same measure for `CCOC(=O)COc1cc(F)ccc1C(=O)NCc1cccc([N+](=O)[O-])c1`: 78 to 80 °C. `CC(C)(N)CNC(N)=O` had a melting point of 58 to 62 °C. The figure for `O=c1[nH]c2ccc(Cl)cc2c(-c2ccccc2F)c1CO` is 282 to 286 °C; for `CCOc1cc(C=O)cc2c1OC1(C=C2Br)CCN(C(=O)OC(C)(C)C)CC1` it is 148 to 150 °C.

`CCN(CC)C(=O)c1ccc(C(c2ccccc2)C2CCNCC2)cc1` (stereo unspecified) gave a melting point of 160 to 162 °C.

The compound `Cc1nc(C)c(Cl)c(NCc2cccc(O)c2)n1` returned a melting point of 194 to 197 °C. The figure for `COc1cc(OC)c2c(c1)OC(C)(C)CC2NNc1ncnc2c1ncn2C1OC(CO)C(O)C1O` (stereo unspecified) is 111 to 113 °C.

By melting point is commonly meant the temperature, or range, at which the solid turns liquid.
